In patent US8044067B2, “Isoquinolines as IGF-1R inhibitors” (Analytecon S.A., priority 2005, dated 2011):

What was measured:
IGF-1 receptor = target: T1, IGF-1 receptor (Homo sapiens, UniProt P08069); assay: Inhibition of the phosphorylation of the IGF-1 receptor in MCF-7 cells (immunoblotting for phospho-IGF-1R Y1135/1136); type: cell-based; conditions: MCF-7 cells serum starved 20 hours, treated 3 hours, stimulated with 10 nM IGF-1 for 5 minutes
T1 construct: endogenous in cells; host or cells: MCF-7
Procedure: MCF-7 cells were serum starved for 20 hours, treated with compound 15 for 3 hours and finally stimulated with 10 nM IGF-1 for 5 minutes. The cells were lyzed and the lysates analysed by SDS-PAGE and immunoblotting for phospho-IGF-1R is (Y1135/1136).

MAPK (Erk1/2) = assay: Inhibition of the phosphorylation of MAPK in DU-145 cells (immunoblotting for phospho-MAPK); type: cell-based; conditions: DU-145 cells (prostate cancer), incubated over night in serum free medium, IGF1 50 nM for 15 minutes
Procedure: DU-145 cells (prostate cancer) were incubated over night with compound 15 in serum free medium. After stimulation for 15 minutes with IGF1 (50 nM), the cells were lyzed and the lysates analysed by immunoblotting for phospho-MAPK.

[1] = tested on: insulin receptor substrate 1 (IRS-1); assay: Inhibition of the phosphorylation of insulin receptor substrate 1 (IRS-1) in MF-55 cells; type: cell-based; conditions: MF-55 cells (malignant melanoma), 100 ng/ml for one hour, IGF-1 50 ng/ml for 5 minutes
Procedure: MF-55 cells (malignant melanoma) were starved for 20 hours, after which half of the cell mass was incubated with racemic compound 15 (100 ng/ml) for one hour. After activation with IGF-1 (50 ng/ml) for 5 minutes, the two cell samples were lyzed in a special buffer (Upstate Ltd., Dundee, UK) that disrupts the cell membrane as well as the nucleus envelope. After removal of cell debris by centrifugation, the supernatants were analyzed for phosphorylated IRS-1 by Upstate Ltd. The presence of racemic compound 15 lowered the amount of phosphorylated IRS-1 with 20% compared to control. By blocking the function of the IGF-1 receptor, the phosphorylation of the insulin receptor substrate 1 is inhibited.

T1 sequence (P08069 741-1367 limits assumed): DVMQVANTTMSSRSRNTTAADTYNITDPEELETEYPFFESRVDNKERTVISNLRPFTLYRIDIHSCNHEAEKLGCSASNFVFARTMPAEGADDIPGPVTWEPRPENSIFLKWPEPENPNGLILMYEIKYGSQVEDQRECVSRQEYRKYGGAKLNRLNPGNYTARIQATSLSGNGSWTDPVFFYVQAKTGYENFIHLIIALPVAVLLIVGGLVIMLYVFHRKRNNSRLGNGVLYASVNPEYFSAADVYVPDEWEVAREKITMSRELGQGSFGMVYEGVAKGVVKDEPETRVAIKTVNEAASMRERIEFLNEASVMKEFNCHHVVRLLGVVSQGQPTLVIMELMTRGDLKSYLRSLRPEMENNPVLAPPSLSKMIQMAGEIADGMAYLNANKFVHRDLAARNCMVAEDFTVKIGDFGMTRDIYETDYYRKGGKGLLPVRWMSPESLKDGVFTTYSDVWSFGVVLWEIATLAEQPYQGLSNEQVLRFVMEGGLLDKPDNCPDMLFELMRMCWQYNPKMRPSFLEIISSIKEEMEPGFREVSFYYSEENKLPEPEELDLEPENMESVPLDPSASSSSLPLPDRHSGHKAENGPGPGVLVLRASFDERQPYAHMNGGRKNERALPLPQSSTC
T1 sequence (P08069 31-736 limits assumed): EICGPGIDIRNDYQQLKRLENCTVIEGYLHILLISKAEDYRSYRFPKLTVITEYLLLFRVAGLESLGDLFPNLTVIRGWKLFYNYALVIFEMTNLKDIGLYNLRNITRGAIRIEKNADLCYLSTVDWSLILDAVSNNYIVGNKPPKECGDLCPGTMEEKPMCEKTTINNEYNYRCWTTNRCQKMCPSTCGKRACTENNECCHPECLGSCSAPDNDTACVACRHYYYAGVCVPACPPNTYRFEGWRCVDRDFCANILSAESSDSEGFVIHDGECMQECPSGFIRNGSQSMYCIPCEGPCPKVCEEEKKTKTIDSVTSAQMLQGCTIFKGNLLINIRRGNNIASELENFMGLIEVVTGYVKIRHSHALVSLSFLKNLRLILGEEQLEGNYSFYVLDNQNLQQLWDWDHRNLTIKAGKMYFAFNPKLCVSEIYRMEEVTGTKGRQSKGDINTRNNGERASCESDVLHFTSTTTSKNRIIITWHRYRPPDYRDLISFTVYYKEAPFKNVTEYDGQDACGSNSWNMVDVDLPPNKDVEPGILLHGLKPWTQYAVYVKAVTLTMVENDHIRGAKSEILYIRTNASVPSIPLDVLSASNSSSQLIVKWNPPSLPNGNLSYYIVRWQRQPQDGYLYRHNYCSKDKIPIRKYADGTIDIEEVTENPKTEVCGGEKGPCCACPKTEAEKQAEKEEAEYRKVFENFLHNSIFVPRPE

Row | melting point | Structure (SMILES) | IC50 (MAPK (Erk1/2)) | other results
1 | 137 to 139 °C | COc1cc(OC)cc(C2C(=O)N(C)Cc3cc(OC)ccc32)c1 (stereo not shown) [Compound 13, 2-methyl-4-(3,5-dimethoxyphenyl)-7-methoxy-1,4-dihydro-3(2H)-isoquinolinone] | – | –
2 | 164 to 167 °C | COc1ccc2c(c1)CN(N)C(=O)C2c1cc(OC)c(OC)c(OC)c1.Cl (stereo not shown) | – | –
3 | – | COc1ccc2c(c1O)CN(C)C(=O)C2c1cc(OC)c(OC)c(OC)c1 (single isomer, unassigned; (+)) [Compound 15, (+)-2-methyl-4-(3,4,5-trimethoxyphenyl)-8-hydroxy-7-methoxy-1,4-dihydro-3(2H)-isoquinolinone] | ~300 nM | IC50 (IGF-1 receptor): ~1000 nM
4 | – | COc1ccc2c(c1O)CN(C)C(=O)C2c1cc(OC)c(OC)c(OC)c1 (racemic) [racemic compound 15, 2-methyl-4-(3,4,5-trimethoxyphenyl)-8-hydroxy-7-methoxy-1,4-dihydro-3(2H)-isoquinolinone] | – | lowering of the amount of phosphorylated IRS-1 compared to control [1]: 20%
5 | 148 to 149 °C | COc1cc(C2C(=O)N(C)Cc3cc4c(cc32)OCCO4)cc(OC)c1OC (stereo not shown) [Compound 9, 2-methyl-4-(3,4,5-trimethoxyphenyl)-6,7-ethylenedioxy-1,4-dihydro-3(2H)-isoquinolinone] | – | –
6 | – | COc1cc([C@@H]2c3cc4c(cc3[C@H](O)[C@H]3COC(=O)[C@@H]23)OCO4)cc(OC)c1OC [Picropodophyllin, reference compound] | ~5000 nM | –
